# Test results: US11351102B2, “Plant actives and their anti-pollution effects thereof” (SAMI-SABINSA GROUP LIMITED, priority 2019, dated 2022)
# How the values were obtained:
# [1] = tested on: glutathione peroxidase (GPx); test: Antioxidant assay: glutathione peroxidase (GPx) activity in cell lysate; format: cell-based, Human; settings: UV-exposed keratinocytes
# Procedure: (§1) Cellular anti-oxidants are depleted by pollutants. The ability of plant actives to increase these anti-oxidant enzymes in the cells was studied in vitro. Human HaCaT keratinocyte cells were seeded at a density of 5×10^5 cells, well in 6 well plates. The cells were pretreated for one hour with plant actives and exposed to UVA intensity of 17 Joules/m2 for 50 mins. Cells were washed with sterile buffer and fresh culture medium (2% of FBS) with respective concentrations of plant actives were added followed by incubation for 24 hours at 37° C. in a CO2 incubator. Cell lysate were prepared and superoxide dismutase (SOD) levels and glutathione peroxidase (GPx) were estimated.
# Glutathione peroxidase activity was determined according to the method of Hafeman et al. (1974). Glutathione peroxidase degrades H2O2 in presence of glutathione (GSH) thereby depleting it. GSH remaining is measured using DTNB, which gives a colored complex.
# To a volume of 100 μl of cell lysate, 0.2 mM GSH, 0.05 mM H2O2 and 1 mM NaN3 in a total volume of 250 μl with 1M sodium phosphate buffer (pH 7.0). The reaction was incubated at 37° C. for 10 min and stopped by adding 50 μl of 25% TCA. […] The intensity of yellow color formation was measured at 412 nm after incubation at 37° C. for 10 min The enzyme activity was expressed as units/mg protein.
# [2] = tested on: Human HaCaT keratinocyte cells; test: Protection against polycyclic aromatic hydrocarbons (BaP) in the presence of UVA, neutral red uptake; format: cell-based; settings: for % Protection against BaP: individual active, UVA-BaP
# Text: Polycyclic aromatic hydrocarbons (PAHs) are a class of mutagenic and tumorigenic environmental contaminants. PAHs are widespread in the environment produced from incomplete combustion of natural materials and tobacco smoke (Connell, D. W.; Hawker, D. W.; Warne, M. J.; Vowles. P. P.; Polycyclic aromatic hydrocarbons (PAHs). In Introduction into Environmental Chemistry (McCombs. K., and Starkweather, A. W., eds), 1997, pp. 205-217, CRC Press LLC, Boca Raton, Fla. 2. Shaw, G. R.; Connell, D. W.: Prediction and monitoring of the carcinogenicity of polycyclic aromatic compounds (PACs). Rev. Environ. Contam. Toxic., 1994, 135, 1-62.) PAHs themselves are biologically inert and require metabolic activation. in order to exert genotoxicity PAHs absorb light in the UVA region, react with oxygen or other molecules to generate reactive intermediates (Yu H, Xia Q, Yan J, et al. Photoirradiation of polycyclic aromatic hydrocarbons with UVA light—a pathway leading to the generation of reactive oxygen species, lipid peroxidation, and dna damage. Int J Environ Res Public Health. 2006; 3:348-354) Thus, PAHs can be “activated” by light irradiation to cause photo-induced cytotoxicity. Thus photoirradiation of PAHs with UVA irradiation represents a pollutant which causes cytotoxicity and DNA damage.
# Human HaCaT keratinocyte cells were seeded at a density of 1×10^4 cells/well in 96 well plates. Cells were allowed to adhere for overnight. They were pretreated with Benzo(a)pyrene a PAH at 0.5 mM concentration along with different concentrations of plant actives for 50 minutes, exposed to UVA at an intensity of 17 Joules m2. Cells were washed with sterile buffer and fresh culture medium (2% of FBS) with respective concentrations of plant actives were added followed by incubation for 24 hours at 37° C. in a CO2 incubator. Neutral Red (25 μg/mL) (3-amino-7-dimethylamino-2-methylphenazine hydrochloride), was added to the cells for 3 hours. The uptake of NR by the cells was determined by lysing the cells and reading the absorbance at 540 nm in a Tecan microplate reader (TECAN Ltd, Männedorf, Switzerland)
# [3] = tested on: Collagenase Type IV from Clostridium histolyticum; test: Anti-collagenase activity (DQ gelatin, fluorescence); format: biochemical
# Text: Collagenase is one of the matrix metalloprotease, which digest collagen and other components of the extra cellular matrix (ECM). The ECM serves as a scaffold to stabilize the skin structure, and also helps in proliferation and metabolic functions of the skin cells. Loss of collagen leads to wrinkles and sagging of skin. The principle of the assay of collagenase inhibition is based on the fact that the substrate DQ™ gelatine is conjugated to fluorecein—a fluorescent compound. In DQ™ gelatine, fluorescence is quenched. DQ™ gelatine is efficiently digested by collagenases to yield a fluorescent compound which can be measured. The increase in fluorescence is proportional to enzyme activity. In the presence of an anti-collagenase compound the amount of fluorescence will be decreased for a fixed concentration of enzyme and substrate.
# Collagenase Enzyme assay kit (Enzchek® collagenase, gelatinase assay kit, Invitrogen, USA)
# The assay was performed in a 96 well black microtitre plate. Type IV from Clostridium histolyticum with DQ gelatin as substrate was used for the assay. Different concentrations of various plant actives were pre incubated with 20 µl of gelatin substrate (12.5 µg/ml). 100 µl of the Collagenase enzyme solution (final concentration—0.4 U/ml) was added and the fluorescence intensity was measured at […] after 30 minutes. Enzyme activity of control (buffer) was recorded
# The percentage inhibition is calculated as follows:—
# [formula] B—Fluorescence in the presence of enzyme. BC—Fluorescence in the absence of enzyme activity T—Fluorescence of enzyme activity in the presence of inhibitor TC—Fluorescence of the inhibitor alone
# IL-8 = test: Anti-inflammatory activity: IL8 in assay supernatants by ELISA; format: cell-based
# Procedure: IL8 in the assay supernatants were measured using Duoset ELISA kit (R & D systems, Cat No. DY208)
# [4] = tested on: superoxide dismutase (SOD); test: Antioxidant assay: superoxide dismutase (SOD) activity in cell lysate, WST-1 method; format: cell-based, Human; settings: UV-exposed keratinocytes
# Procedure: as §1
# The activity of SOD in the cell lysate was measured by WST-1 method using a kit as per the manufacturer's instructions (Elabsciences). Xanthine Oxidase (XO) can catalyze WST-1 react with O2. —to generate a water-soluble formazan dye. SOD can catalyze the disproportionation of superoxide anions, so the reaction can be inhibited by SOD, and the activity of SOD is negatively correlated with the amount of formazan dye. Therefore, the activity of SOD can be determined by the colorimetric analysis of WST-1 products.
# [5] = DPPH free radical scavenging assay
# Text: Reactive oxygen species (ROS) including superoxide, hydroxyl, peroxyl, and alkoxy radicals are produced by normal metabolic processes. Under normal condition, these free radicals are scavenged by the cellular anti-oxidants and remain in equilibrium. Radiations, toxins and pollutants increase the ROS which can induce oxidative damage to biomolecules such as lipids, nucleic acids, proteins and carbohydrates. These ROS induced damage causes skin irritation, inflammation, ageing, cancer and many other diseases, α, α-diphenyl-β-picrylhydrazyl (DPPH) free radical scavenging method is one of the first approach for evaluating the antioxidant potential of a compound.
# Reagents: 0.1 mM of DPPH in ethanol, 0.1M phosphate buffered saline (pH 7.4)
# DPPH is a stable free radical in a methanolic solution with an absorbance at 520 nm. If the free radicals are scavenged by an anti oxidant molecule, the resulting solution appears yellow. The hydrogen atoms or electrons donation ability of the extracellular metabolite was measured by the bleaching of purple coloured DPPH methanol solution.
# Different concentrations of various plant actives were diluted in methanol. For the DPPH radical scavenging assay, 20 μL of different concentration of sample was mixed with 180 μL of DPPH in methanol in a 96 well plate following the method as described earlier (Clarke et al., 2013). The plate was kept in the dark for 15 min. after which the absorbance of the solution was measured at 540 nm using a microplate reader (TECAN Ltd, Männedorf. Switzerland). Blanks (DMSO, methanol) and standard (TBHQ solution in methanol) were recorded simultaneously. The extracts were screened with variable concentrations to establish the inhibition concentration (IC50, the concentration reducing DPPH absorbance by 50%).
# The free radical scavenging activity was calculated as follows.
# [formula] Where, B=Absorbance of reference solution (OD of DPPH) C=Absorbance of reference solution blank (OD of Methanol only) S=Absorbance of test solution C=Absorbance of test solution blank
# [6] = tested on: Human HaCaT keratinocyte cells/mouse fibroblast cells; test: ROS assay (DCFH-DA) after exposure to heavy metals, UVA or UVB; format: cell-based
# Text: A cell permeable, non-fluorescent dye, 2′,7′-dichlorofluorescein diacetate (DCFH-DA) enters the cell and the acetate group on DCFH-DA is cleaved by cellular esterases, trapping the non-fluorescent DCFH inside the cell. Subsequent oxidation by reactive oxygen species generated in the cells, yields the fluorescent DCF which can be detected at 485/520 Ex:Em wavelength. The scavenging activity of sample is indicated by the decrease in fluorescence when compared to the control without antioxidant.
# Human HaCaT keratinocyte cells/mouse fibroblast cells were maintained in DMEM containing 25 mM glucose with 10% heat-inactivated fetal calf serum with antibiotics at 37° C. and 5% CO2. When the cells were 70-80% confluent, they were trypsinized, washed and seeded in 96 well plates at a density seeded at a density of 5×10^4 cells/well. Cells were allowed to adhere for overnight. Cells were pretreated with varying non toxic concentrations of different plant actives for 60 minutes before exposing to the pollutant. Cells were exposed to the following pollutants in the presence of plant actives.
# UVA intensity of 15 Joules/m2 for 60 mins,
# UV-B intensity of 4.6 Joule/m2 for 10 mins
# Heavy metals (Cobalt chloride and Lead Nitrate at 0.25 mm each) for 6 hours
# Intracellular ROS was determined after the specific treatment period by adding freshly prepared DCFH-DA reagent to all the wells at a concentration of 10 μg/well and incubated at 37° C. for 30 mins. The fluorescence was recorded at a wavelength of 485:520 (Ex:Em) nm in BMG FluoStar Optima microplate reader.
smiles,measurement,setting,value
"Oc1cc(O)cc(/C=C/c2ccc(O)cc2O)c1 [Oxyresveratrol, oxyresveratrol]",glutathione peroxidase activity,[1],restored normal enzyme activity
same,glutathione peroxidase activity,[1]; listed as 95% oxyresveratrol,dose dependant decrease
same,protection against UVA+BaP,[2]; concentrations of 3.12-12.5 μg/ml,dose dependant protection
same,% Protection against BaP,[2]; 6.25 μg/ml,28.04%
same,Anti-collagenase activity % inhibition,[3]; 12.5 μg/ml,0.05%
same,Anti-collagenase activity % inhibition,[3]; 25 μg/ml,9.93%
same,Anti-collagenase activity % inhibition,[3]; 50 μg/ml,41.19%
same,Anti-collagenase activity % inhibition,[3]; 100 μg/ml,80.92%
same,inhibition at 3.125 µg/mL,IL-8; 3.125 μg/ml,13.3%
same,inhibition at 6.25 µg/mL,IL-8; 6.25 μg/ml,18.4%
same,superoxide dismutase activity,[4],restored normal enzyme activity
same,superoxide dismutase activity,[4]; listed as 95% oxyresveratrol,dose dependant increase
same,DPPH radical scavenging % inhibition,[5]; 0.3125 μg/ml,22.9%
same,DPPH radical scavenging % inhibition,[5]; 0.625 μg/ml,42.07%
same,DPPH radical scavenging % inhibition,[5]; 1.25 μg/ml,68.63%
same,DPPH radical scavenging % inhibition,[5]; 2.5 μg/ml,77.89%
same,DPPH radical scavenging % inhibition,[5]; 5.00 μg/ml,84.14%
same,DPPH radical scavenging IC50,[5]; concentration reducing DPPH absorbance by 50%,0.61 µg/mL
same,ROS generated by exposure to UVA,[6]; UVA 60 mins,reduced the ROS
same,ROS generated by exposure to UVB,[6]; UVB 10 mins,reduced the ROS
same,ROS generated by exposure to heavy metals,[6]; heavy metals (cobalt chloride and lead nitrate) 6 hours,reduced the ROS
"COc1cc(/C=C/c2ccc(O)cc2)cc(OC)c1 [Pterostilbene, pterostilbene]",% Protection against BaP,[2]; 2.5 μgml,No activity
"COc1cc(CCC(=O)CC(=O)CCc2ccc(O)c(OC)c2)ccc1O [Tetrahydrocurcumin, tetrahydrocurcumin]",% Protection against BaP,[2]; 5 μg/ml,No activity
same,inhibition at 12.5 µg/mL,IL-8; read-out: % inhibition of IL-8,6.07%
same,inhibition at 25 µg/mL,IL-8; read-out: % inhibition of IL-8,11.7%
